Measurements as given in US8609650B2, “Bridged bicyclic aryl and bridged bicyclic heteroaryl substituted triazoles useful as Axl inhibitors” (Rigel Pharmaceuticals, Inc., priority 2006, dated 2013).

Molecular target: T1, Axl (Homo sapiens, UniProt P30530)
T1 construct: endogenous in cells; host or cells: HeLa cells
T1 sequence (P30530 26-894): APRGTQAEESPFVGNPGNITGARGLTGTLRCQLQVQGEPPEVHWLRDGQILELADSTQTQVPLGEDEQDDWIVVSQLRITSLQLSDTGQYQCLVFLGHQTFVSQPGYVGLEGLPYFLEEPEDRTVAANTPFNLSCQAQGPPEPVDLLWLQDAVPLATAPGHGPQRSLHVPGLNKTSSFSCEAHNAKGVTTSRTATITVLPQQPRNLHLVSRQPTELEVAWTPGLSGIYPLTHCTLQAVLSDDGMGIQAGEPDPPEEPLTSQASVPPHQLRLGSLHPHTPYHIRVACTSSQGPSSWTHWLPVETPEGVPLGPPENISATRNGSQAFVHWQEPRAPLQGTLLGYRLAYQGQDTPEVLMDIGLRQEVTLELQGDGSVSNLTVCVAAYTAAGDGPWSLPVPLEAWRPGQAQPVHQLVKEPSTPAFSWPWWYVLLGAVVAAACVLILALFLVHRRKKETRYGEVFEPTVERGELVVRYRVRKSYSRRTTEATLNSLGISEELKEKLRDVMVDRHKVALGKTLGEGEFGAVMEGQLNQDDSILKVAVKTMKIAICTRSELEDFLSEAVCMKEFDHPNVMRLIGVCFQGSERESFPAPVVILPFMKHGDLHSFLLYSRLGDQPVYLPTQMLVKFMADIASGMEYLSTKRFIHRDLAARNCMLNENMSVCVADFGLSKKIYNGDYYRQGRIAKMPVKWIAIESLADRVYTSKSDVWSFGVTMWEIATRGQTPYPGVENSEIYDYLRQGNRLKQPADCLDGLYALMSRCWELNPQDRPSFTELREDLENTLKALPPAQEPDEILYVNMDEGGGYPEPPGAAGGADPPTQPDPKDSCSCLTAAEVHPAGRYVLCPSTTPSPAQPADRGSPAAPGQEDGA
Test: Phospho-Akt In-Cell Western Assay (ability to inhibit Axl activity)
Assay type: cell-based
Settings: Hela cells, stimulated by Axl-antibody cross-linking, phospho-Akt chemiluminescence normalized to relative cell number
Description: The compounds of the invention were tested in the following assay for their ability to inhibit Axl activity.
Phospho-Akt In-Cell Western Assay
• Cell culture plate: 96 well assay plate (Corning 3610), white, clear bottom, tissue-culture treated. • Cells: Hela cells. • Starvation medium: For Axl stimulation: 0.5% FCS (fetal calf serum) in DMEM, plus Axl/Fc (extracellular domain of AXL fused to immunoglobulin Fc region) (R&D, 154-AL) 500 ng/mL. • For EGF (epidermal growth factor) stimulation: 0.5% FCS in DMEM (Dulbecco's modified Eagles medium). • Poly-L-Lysine 0.01% solution (the working solution): 10 μg/ml, dilute In PBS (phosphate buffered saline). • Axl antibody cross-linking: • 1st: Mouse anti-Axl (R&D, MAB154). • 2nd: Biotin-SP-conjugated AffiniPure goat anti-mouse IgG (H+L) (Jackson ImmunoResearch #115-065-003). • Fixing buffer: 4% formaldehyde in PBS. • Wash buffer: 0.1% TritonX-100 in PBS. • Quenching buffer: 3% H2O2, 0.1% Azide in wash buffer, Azide and hydrogen peroxide (H2O2) are added fresh. • Blocking buffer: 5% BSA in TBST (tris buffered saline plus 0.1% Tween 20). • Primary antibody: Rabbit anti-human Phospho-Akt antibody (Cell Signaling 9271): 1×250 diluted in blocking buffer. • Secondary antibody: HRP (horse radish peroxidase)-conjugated Goat anti-Rabbit secondary, stock solution: Jackson ImmunoResearch (Goat anti-Rabbit HRP, #111-035-144) 1:1 diluted in glycerol, store at −20° C. The working solution: 1×2000 dilution of stock in blocking buffer. • Chemiluminescent working solution (Pierce, 37030): SuperSignal ELISA (enzyme linked immunosorbant assay) Pico Chemiluminescent substrate. • Crystal Violet solution: Stock: 2.5% Crystal violet in methanol, filtered and kept at ambient temperature. The working solution: dilute the stock 1:20 with PBS immediately before use. • 10% SDS: working solution: 5% SDS (sodium dodecylsulfate), diluted in PBS Methods: Day 1:
A 96 well TC (tissue culture treated) plate was coated with 10 μg/mL poly-L-Lysine at 37° C. for 30 min, washed twice with PBS, and air-dried for 5 minutes before cells were added. Hela cells were seeded at 10,000 cells/well and the cells were starved in 100 μL starvation medium containing Axl/Fc for 24 hrs.
The cells were pre-treated with test compounds by adding 100 μL of 2× test compound to the starvation medium on the cells. The cells were incubated at 37° C. for 1 hr before stimulation.
The cells were stimulated by Axl-antibody cross-linking as follows: A 5×1st/2nd Axl antibody mixture was made (37.5 μg/mL 1st/100 μg/mL 2nd) in starvation medium and nutated at 4° C. with thorough mixing for 1-2 hours for clustering. The resulting mix was warmed to 37° C. 50 μL of 5× Axl 1st/2nd of antibody cluster was added to the cells and the cells were incubated at 37° C. for 5 min.
After 5 minutes stimulation, the plate was flicked to remove medium and the plate was tapped onto paper towels. Formaldehyde (4.0% in PBS, 100 μL) was added to fix the cells and the cells were incubated at ambient temperature for 20 min without shaking.
The cells were washed with a plate washer buffer to remove the formaldehyde solution. The plate was flicked to removed excess wash buffer and tapped onto paper towels. Quenching buffer (100 μL) was added to each well and the cells were incubated at ambient temperature for 20 minutes without shaking.
The cells were washed with a plate washer buffer to remove the quenching buffer. Blocking buffer (100 μL) was added and the cells were incubated at ambient temperature for at least an hour with gentle shaking.
The cells were washed with a plate washer buffer and diluted primary antibody (50 μL) was added to each well (blocking buffer was added to the negative control wells instead). The plates were incubated overnight at 4° C. with gentle shaking.
The wash buffer was removed, diluted secondary antibody (100 μL) was added, and the cells were incubated at ambient temperature for 1 hour with gentle shaking. […]

Row | SMILES | IC50 [nM]
1 | CCN(CC)C1CCN(c2ccc(Nc3nc(N)n(-c4ncnc5c4C4CCC5C4)n3)cc2F)CC1 (centres unmarked) [Compound 17, 1-(5,8-methano-5,6,7,8-tetrahydroquinazolin-4-yl)-N^3-(3-fluoro-4-(4-diethylaminopiperidin-1-yl)phenyl)-1H-1,2,4-triazole-3,5-diamine] | < 1000
2 | Nc1nc(Nc2ccc(N3CCN(C4CC5CCC4C5)CC3)c(F)c2)nn1-c1cc(-c2ccccc2)c2c(n1)C1CCN2CC1 (centres unmarked) [Compound 36, 1-(1,4-ethano-8-phenyl-1,2,3,4-tetrahydro-1,5-naphthyridin-6-yl)-N^3-(3-fluoro-4-(4-bicyclo[2.2.1]heptan-2-ylpiperazin-1-yl)phenyl)-1H-1,2,4-triazole-3,5-diamine] | < 1000
3 | Nc1nc(Nc2ccc(N3CCN(C4CCCCC4)CC3)cc2)nn1-c1ncc2c(n1)C1CCC2C1 (centres unmarked) [Compound 6, 1-(5,8-methano-5,6,7,8-tetrahydroquinazolin-2-yl)-N^3-(4-(4-cyclohexanylpiperazin-1-yl)phenyl)-1H-1,2,4-triazole-3,5-diamine] | < 1000
4 | Cc1cc(Nc2nc(N)n(-c3cc(-c4ccccc4)c4c(n3)C3CCN4CC3)n2)ccc1N1CCC(N2CCCC2)CC1 [Compound 68, 1-(1,4-ethano-8-phenyl-1,2,3,4-tetrahydro-1,5-naphthyridin-6-yl)-N^3-(3-methyl-4-(4-(pyrrolidin-1-yl)piperidin-1-yl)phenyl)-1H-1,2,4-triazole-3,5-diamine] | < 1000
5 | CN1CCN(c2ccc(Nc3nc(N)n(-c4nnc(-c5ccccc5)c5c4C4CCC5C4)n3)cc2)CC1 (centres unmarked) [Compound 42, 1-(5,8-methano-1-phenyl-5,6,7,8-tetrahydrophthalazine-4-yl)-N^3-(4-(4-methylpiperazin-1-yl)phenyl)-1H-1,2,4-triazole-3,5-diamine] | < 1000

Other lines, results leading:

Row | IC50 [nM] | SMILES
6 | > 20000 | Nc1nc(Nc2ccc(OCCN3CCCC3)cc2)nn1-c1ncc2c(n1)C1CCC2C1 (centres unmarked) [Compound 1, 1-(5,8-methano-5,6,7,8-tetrahydroquinazolin-2-yl)-N^3-(4-(2-(pyrrolidin-1-yl)ethoxy)phenyl)-1H-1,2,4-triazole-3,5-diamine]
7 | < 1000 | Nc1nc(Nc2ccc(OCCN3CCCC3)cc2)nn1-c1ncnc2c1C1CCC2C1 (centres unmarked) [Compound 19, 1-(5,8-methano-5,6,7,8-tetrahydroquinazolin-4-yl)-N^3-(4-(2-(pyrrolidin-1-yl)ethoxy)phenyl)-1H-1,2,4-triazole-3,5-diamine]
8 | < 1000 | Nc1nc(Nc2ccc(N3CCN(CC(=O)O)CC3)c(F)c2)nn1-c1cc(-c2ccccc2)c2c(n1)C1CCN2CC1 [Compound 56, 1-(1,4-ethano-8-phenyl-1,2,3,4-tetrahydro-1,5-naphthyridin-6-yl)-N^3-(3-fluoro-4-(4-carboxymethylpiperazin-1-yl)phenyl)-1H-1,2,4-triazole-3,5-diamine]
9 | < 1000 | COc1cc2ncnc(-n3nc(Nc4ccc5c(c4)CC4CCC(C5)C4N4CCCC4)nc3N)c2cc1OC (centres unmarked) [Compound 16, 1-(6,7-dimethoxyquinazolin-4-yl)-N^3-(7-pyrrolidin-1-yl-6,8-ethano-6,7,8,9-tetrahydro-5H-benzo[7]annulene-3-yl)-1H-1,2,4-triazole-3,5-diamine]
10 | 1000 to 10000 | Nc1nc(Nc2ccc(N3CCN(C4CCCCC4)CC3)c(F)c2)nn1-c1cc(-c2ccccc2)c2c(n1)C1CCC2C1 (centres unmarked) [Compound 44, 1-(5,8-methano-4-phenyl-5,6,7,8-tetrahydroquinoline-2-yl)-N^3-(3-fluoro-4-(4-cyclohexylpiperazin-1-yl)phenyl)-1H-1,2,4-triazole-3,5-diamine]
11 | < 1000 | CN1CCN(c2ccc(Nc3nc(N)n(-c4ncnc5c4C4CCC5C4)n3)cc2)CC1 (centres unmarked) [Compound 20, 1-(5,8-methano-5,6,7,8-tetrahydroquinazolin-4-yl)-N^3-(4-(4-methylpiperazin-1-yl)phenyl)-1H-1,2,4-triazole-3,5-diamine]
